{"source": "patent US20040115245A1", "about": "“Autoinducer compounds and their uses” (priority 2001, published 2004)", "key": {"[1]": {"test_system": "broiler chickens", "assay": "Growth performance and mortality of broiler chickens raised in floor pens", "type": "in vivo, broiler chickens (Cobb×Cobb)", "settings": "for Feed Conversion, Day 21-35: grower period; for Daily Feed intake, Day 0-21 / Daily Feed intake, Day 0-35 / Daily Feed intake, Day 21-35: per bird", "protocol": "This experiment examined the effect of N-(3-oxohexanoyl)-L-homoserine lactone (OHHL) (CAS #: 143537626, molecular formula : C10H15NO4, molecular weight: 213) on the growth performance and mortality of broiler chickens.\nA stock solution of 1 mM OHHL (0.213 g/L) was prepared as follows. Approximately 50% of the required volume of distilled water was warmed to approximately 30-40° C. and used to dissolve the required amount of OHHL powder. The solution was made up to volume using distilled water stored at room temperature. OHHL solution (0.213 g/L) was applied to treated crumbled feed at a rate of 3 kg per tonne. Control feed was treated with distilled water at a rate of 3 kg per tonne. The OHHL solution was stored for less than 2 days prior to application to feed.\nThe antibiotic BMD®110 was used as a positive control in this study. The active ingredient is bacitracin methylene disalicyclate. The product contains 110 g of bacitracin activity per kg and is approved for prevention of necrotic enteritis in broiler chickens when given at a dose of 55 ppm in feed (500 g BMD®110/tonne feed).\nCoxistac® 6% premix was used as an ionophore in all study diets as an aid in the prevention of coccidiosis. The product contained 60 g salinomycin per kg and was administered at a dose of 60 ppm in feed (1 kg Coxistac® 6% premix per tonne feed).\nThe experiment lasted 35 days with the day of placement of broiler chicks considered as day zero. A total of 1,200 male day-old broiler chickens (Cobb×Cobb) were assigned to treatment on day 0. Birds were vaccinated for Marek's disease at the hatchery. Twenty-four pens, each providing 45 square feet of floor space, were assigned to treatment groups. […] Adjacent pens were separated by a solid 12-inch high plastic barrier at bird level. A welded wire fence with 1-inch square openings was located on top of all barriers. Each pen was permanently identified by number and contained 50 birds on day zero. Each pen contained four nipple-type drinkers which provided clean drinking water ad libitum. Dry feed was provided ad libitum in tube-type feeders (one per pen) of 20 kg capacity.\nThe barn was heated by five natural gas heaters which were equally spaced and positioned to warm incoming air at the north wall of the building. Air was exhausted by fans located on the south-facing wall of the building. Lighting program, barn temperature, and other management practices were typical of commercial broiler chicken producers in North America. Birds that were moribund and unable to reach food or water were culled and euthanised by carbon dioxide gas.\nBodyweight, pen number and date of death were recorded for each bird that was culled or found dead. Mortalities were submitted to the pathologist to determine the apparent cause of death.\nA randomised complete block design was used to study the main and interactive-effects of OHHL (0 and 0.639 g/tonne) and dietary antibiotic ([…]) in a 2×2 factorial arrangement. Dietary treatments were as follows:\nThere were four pens per block and six replicate blocks for a total of 24 pens.\nThe feeding program was used in the study used a starter feed type on days 0 to 20 and a grower feed type on days 21 to 35. Diet formulation was representative of commercial diets in North America.\nA starter diets using a basal mix of starter diet containing either 0 or 55 ppm BMD was manufactured, pelleted, and crumbled. Bagged starter feed was treated with either distilled water (0 g OHHL per L) or OHHL solution (0.213 g OHHL per L) using a horizontal double ribbon mixer of 100 kg capacity. Distilled water or OHHL solution (0.213 g per L) were applied to crumbled feed at a rate of 3 kg per tonne feed. Grower diets were manufactured as described above for starters.\nThe data collected consisted of:\n1. Bodyweight on days 0, 21, and 35.\n2. Amounts of each feed (starter and grower) consumed.\n3. Bodyweight and date of death for birds which were culled or died.\n4. […]"}, "[2]": {"test_system": "cultures of rumen fluid", "assay": "In vitro digestion of grass silage by cultures of rumen fluid", "type": "cell-based, cow", "settings": "OHHL 0, 200, 500 and 1000 nanomoles final in rumen fluid, 37° C., 10 hours, triplicate", "source_text": "Autoinducer compounds such as acyl homoserine lactones can have significant effects on cultures of bacteria. For example, they may be used to induce expression of antibiotics and extracellular enzymes. […] is the signal molecule for antibiotic production in Chromobacterium violaceum; butanoyl homoserine lactone triggers various phenotypes in Pseudomonas aeruginosa including the production of various enzymes and lectins. OHHL is known to have different effects on different species. For example, in Erwinia stewartii it induces production of exopolysaccharides, while in Vibrio species it promotes bioluminescence. Thus, in a complex mixed culture comprising many species including ruminobacter sp., prevotella sp., ruminococcus sp., it is hard to predict the specific phenotypes that will be induced by even the introduction of just one autoinducer compound. However. the global effect on rumen mixed culture fermentation can be measured in terms of the efficiency of digestion of forage. […] A control sample treated with water and four test samples treated with using nanomolar concentrations of OHHL are examined.\nRumen fluid was collected from a healthy fistulated grass fed cow and immediately dispensed into 75 ml bottles. These bottles were kept at 37° C. […]"}, "[3]": {"test_system": "sheep", "assay": "Rumen dry matter disappearance of corn silage in cannulated sheep (in situ bags)", "type": "in vivo", "parameters": "dry matter disappearance, OHHL − Control, Mean / dry matter disappearance, OHHL − Control, 4 Hours / dry matter disappearance, OHHL − Control, 8 Hours / dry matter disappearance, OHHL − Control, 12 Hours / dry matter disappearance, OHHL − Control, 24 Hours: concentration or dose not given beside the values", "protocol": "This experiment examined the effect of N-(3-oxohexanoyl)-L-homoserine lactone (OHHL) (CAS#: 143537626, molecular formula : C10H15NO4, molecular weight: 213) on rumen dry matter disappearance in vivo in sheep.\nA stock solution of OHHL (0.639 gram/L) was prepared as follows. Approximately 50% of the required volume of distilled water was warmed to approximately 30-40° C. and used to dissolve the required amount of OHHL powder. The volumetric flask was made up to volume using distilled water stored at room temperature. OHHL solution was applied to pelleted sheep ration at a rate of 3 kg per tonne of feed. Control feed was treated with 3 kg of distilled water per tonne.\nInitial attempts to administer OHHL by application of an aqueous solution to the outside of pelleted feed were modified as the sheep decreased intake of treated feed after a few days. Instead, OHHL was administered as an oral drench twice daily commencing on the afternoon of Day 11 of each period.\nA restricted quantity of pelleted ration was provided at a rate of approximately 0.5 kg/day (0.25 kg in the a.m. and 0.25 kg in the p.m.). Access to hay was restricted as needed to help ensure that sheep ration was consumed.\nOn Days 12 and 13, pelleted ration (0.25 kg/animal) was issued to animals approximately 1 hour prior to introduction of bags into the rumen and again following removal of the 8-hour bag from each animal.\nOne fresh sample of corn silage was dried to constant weight and allowed to cool to room temperature. A representative sub-sample was taken for dry matter determination. The sample was ground to pass a 1 mm screen, mixed and sampled for dry matter assay. The remaining sample was stored for in situ determination of dry matter disappearance from the rumen of cannulated sheep.\nAnkom rumen sampling bags were used in the study. Each bag was approximately 5 cm×10 cm, suitable for a one-gram sample. Pore size was 53±10 microns. Dried, ground corn silage was weighed (1.00±0.01 grams) into bags and sealed. A set of four bags was prepared per animal per day and these were attached to a string to facilitate placement in and removal from the rumen. A fifth bag served as a blank for each set of four bags. The blank was not placed in the rumen but was washed, processed and dried.\nA rumen cannula was surgically placed in each of five mature (approximately 3-year old) ewes. Following recovery from surgery, four of these animals were selected for use in the study. The fifth animal served as a reserve for use in the event of post-surgical complications in a study animal.\nDry matter disappearance was measured by removing bags from the rumen at 4, 8, 12 and 24 hours and washed under cold running tap water together with a corresponding blank bag. Bags were then dried to constant weight. Measurement of dry matter disappearance was completed for each animal commencing on the morning of Day 12 and Day 13 of each period.\nA Latin Square Design was used to study the effects of two treatments:\nA, Control: 0 gram OHHL per tonne ration.\nB: Treated with the equivalent of 1.917 gram OHHL per tonne ration.\nEach period was of 14 days duration. A total of four study animals were blocked based on bodyweight (2 blocks). Animals within block were randomly assigned to Sequence 1 or 2:\nData were analysed by a multiple regression analysis that included effects of treatment, animal, period, study day and hour."}, "[4]": {"settings": "individual treatment mean (2×2 factorial cell)"}, "[5]": {"settings": "individual treatment mean (2×2 factorial cell), OHHL 0.639 g/tonne feed, BMD 110 500 g/tonne"}, "[6]": {"settings": "main-effect mean pooled over the other factor"}}, "note": "Entries after “also recorded” stand apart in the source; their conditions may differ.", "data": [{"smiles": "CCCC(=O)CC(=O)N[C@H]1CCOC1=O", "note": "[OHHL, N-(3-oxohexanoyl)-L-homoserine lactone]", "values": [{"measurement": "adverse effects on bird health / survival", "setting": "[1]; continuous administration in feed for 35 days, necropsy of all mortalities", "result": "no evidence of any adverse effect; also recorded: did not have an adverse effect on bird survival"}, {"measurement": "Mortality, Day 0-21", "setting": "[1]; [4]", "result": 1.0, "unit": "%"}, {"measurement": "Mortality, Day 0-35", "setting": "[1]; [4]", "result": 1.7, "unit": "%"}, {"measurement": "Mortality, Day 21-35", "setting": "[1]; [4]", "result": 0.7, "unit": "%"}, {"measurement": "Average bodyweight, Day 21", "setting": "[1]; [5]", "result": 0.796, "unit": "kg"}, {"measurement": "Average bodyweight, Day 35", "setting": "[1]; [5]", "result": 1.934, "unit": "kg"}, {"measurement": "Feed Conversion, Day 21-35", "setting": "[1]; [4]", "result": 1.812}, {"measurement": "Feed Conversion, Day 0-35", "setting": "[1]; individual treatment mean (2×2 factorial cell), overall period", "result": 1.629}, {"measurement": "Daily Feed intake, Day 0-21", "setting": "[1]; [4]", "result": 0.049}, {"measurement": "Daily Feed intake, Day 0-35", "setting": "[1]; [4]", "result": 0.088}, {"measurement": "Daily Feed intake, Day 21-35", "setting": "[1]; [4]", "result": 0.147}, {"measurement": "Feed Conversion, Day 0-21", "setting": "[1]; individual treatment mean (2×2 factorial cell), starter period", "result": 1.357}, {"measurement": "Mortality, Day 0-21", "setting": "[1]; [6]", "result": 1.3, "unit": "%"}, {"measurement": "Mortality, Day 0-35", "setting": "[1]; [6]", "result": 2.2, "unit": "%"}, {"measurement": "Mortality, Day 21-35", "setting": "[1]; [6]", "result": 0.8, "unit": "%"}, {"measurement": "Average bodyweight, Day 35", "setting": "[1]; main-effect mean pooled over the other factor, OHHL 0.639 g/tonne feed, BMD 110 500 g/tonne", "result": 1.937, "unit": "kg"}, {"measurement": "Feed Conversion, Day 21-35", "setting": "[1]; [6]", "result": 1.794}, {"measurement": "Daily Feed intake, Day 0-21", "setting": "[1]; [6]", "result": 0.048}, {"measurement": "Daily Feed intake, Day 0-35", "setting": "[1]; [6]", "result": 0.087}, {"measurement": "Daily Feed intake, Day 21-35", "setting": "[1]; [6]", "result": 0.147}, {"measurement": "mean percentage loss of weight of grass silage", "setting": "[2]", "result": "increased the mean percentage loss of weight"}, {"measurement": "dry matter disappearance, 4 Hours", "setting": "[3]; corn silage in rumen bags, 4 h incubation, OHHL equivalent to 1.917 gram per tonne ration, oral drench twice daily", "result": 53.0, "unit": "%"}, {"measurement": "dry matter disappearance, 8 Hours", "setting": "[3]; corn silage in rumen bags, 8 h incubation, OHHL equivalent to 1.917 gram per tonne ration", "result": 57.8, "unit": "%"}, {"measurement": "dry matter disappearance, 12 Hours", "setting": "[3]; corn silage in rumen bags, 12 h incubation, OHHL equivalent to 1.917 gram per tonne ration", "result": 65.7, "unit": "%"}, {"measurement": "dry matter disappearance, 24 Hours", "setting": "[3]; corn silage in rumen bags, 24 h incubation, OHHL equivalent to 1.917 gram per tonne ration", "result": 74.5, "unit": "%"}, {"measurement": "dry matter disappearance, OHHL − Control, 4 Hours", "setting": "[3]; difference to control, 4 h", "result": 4.16, "unit": "%"}, {"measurement": "dry matter disappearance, OHHL − Control, 8 Hours", "setting": "[3]; difference to control, 8 h", "result": "−0.60", "unit": "%"}, {"measurement": "dry matter disappearance, OHHL − Control, 12 Hours", "setting": "[3]; difference to control, 12 h", "result": 3.36, "unit": "%"}, {"measurement": "dry matter disappearance, OHHL − Control, 24 Hours", "setting": "[3]; difference to control, 24 h", "result": 0.15, "unit": "%"}, {"measurement": "dry matter disappearance, OHHL − Control, Mean", "setting": "[3]; difference to control, mean of all times (percentage units; P=0.105)", "result": 1.77, "unit": "%"}, {"measurement": "dry matter disappearance, Mean", "setting": "[3]; mean over 4, 8, 12, 24 h", "result": 62.7, "unit": "%"}]}]}
